For test [1], the target named is purified human TTR (Homo sapiens, UniProt P02766). As to the kind of experiment: Fluorescence polarization (FP) binding assay, ligands to TTR in buffer.
Test [2] has as its target TTR in human serum (Homo sapiens, UniProt P02766). Put plainly: TTR serum fluorescent probe exclusion (FPE) selectivity assay. In kind it is binding. As to conditions: ligand 10 µM; for %FPE probe fluorescence: human serum, replicates.
In test [3] the target is holo-RBP-TTR interaction (Homo sapiens, UniProt P02766). As to the kind of experiment: Effect on holo-RBP-TTR interaction in human serum (cross-linking, Western blot). As to conditions: human serum, quantified from gel image, replicates (Supp Fig.14b).
For test [4], the system named is male Sprague-Dawley rats. Conditions: cited from earlier work.
Test [5] addresses human mu-opioid receptors (Homo sapiens, UniProt P35372). As to conditions: cited from earlier work.

Values joined by “and” are separate entries in the source; they are usually repeats but may differ in a detail not shown here. Equal entries are not always repeated. Where two headings read alike, the source gives them in different places.

Chain of human mu-opioid receptors (P35372 whole entry): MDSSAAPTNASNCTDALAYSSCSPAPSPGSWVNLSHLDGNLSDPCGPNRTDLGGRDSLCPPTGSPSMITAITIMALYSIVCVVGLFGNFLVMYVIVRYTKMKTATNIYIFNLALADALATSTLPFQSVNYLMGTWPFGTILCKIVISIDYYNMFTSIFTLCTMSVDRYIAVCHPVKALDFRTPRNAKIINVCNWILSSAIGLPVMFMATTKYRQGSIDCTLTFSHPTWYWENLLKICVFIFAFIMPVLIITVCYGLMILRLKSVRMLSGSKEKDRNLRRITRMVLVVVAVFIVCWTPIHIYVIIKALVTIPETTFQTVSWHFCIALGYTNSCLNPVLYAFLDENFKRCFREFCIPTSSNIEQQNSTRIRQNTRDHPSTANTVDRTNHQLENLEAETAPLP

Turning to `Cc1n[nH]c(C)c1CCCOc1cc(OCCCCCCN)cc(C(=O)O)c1` [Compound 1], the dissociation constant (Kd) in test [1] (FP assay, Kd from IC50 by Cheng-Prusoff, read-out: binding affinity to TTR in buffer (Kd)) was determined as 0.0685 µM. For the same compound, the “% Fluorescence polarization (mean)” value was 100.000% in test [1] (log [nM] inhibitor 0.990); 100.180% in test [1] (log [nM] inhibitor 1.291); 101.890% in test [1] (log [nM] inhibitor 1.592); 93.660% in test [1] (log [nM] inhibitor 1.893); 79.820% in test [1] (log [nM] inhibitor 2.194); 50.610% in test [1] (log [nM] inhibitor 2.495). Further, the “% Fluorescence polarization (mean)” value in test [1] (log [nM] inhibitor 2.796) was 29.820%; in test [1] (log [nM] inhibitor 3.097), 10.200%; in test [1] (log [nM] inhibitor 3.398) it was 5.680%; in test [1] (log [nM] inhibitor 3.699), 2.100%; in test [1] (log [nM] inhibitor 4.000), 0.000%; in test [1] (log [nM] inhibitor […]), 0.000%. The “% TTR occupancy in human serum” value in test [2] (FPE probe 3.6 µM, 3 h reading relative to probe alone, text mean ± s.d., table replicates) was 80.97% and 81.01% and 82.98% and 80.85%. Also, the “%FPE probe fluorescence” value in test [2] (time 0.000 h) is 0.000%; in test [2] (time 0.083 h), 1.647% and 2.385% and -0.604% and 3.064%; in test [2] (time 0.250 h), 1.886% and 5.252% and 4.502% and 2.159%; in test [2] (time 0.500 h), 6.344% and 5.631% and 7.192% and 4.320%; in test [2] (time 1.000 h) it was 3.308% and 7.416% and 10.395% and 10.953%; in test [2] (time 1.250 h), 4.585% and 8.580% and 11.565% and 11.702%. Moreover, the “%FPE probe fluorescence” value was 7.132% and 12.681% and 12.080% and 11.106% in test [2] (time 1.500 h); 8.769% and 12.456% and 13.547% and 12.819% in test [2] (time 1.750 h); 10.680% and 14.441% and 12.622% and 13.836% in test [2] (time 2.000 h); 13.720% and 16.433% and 14.485% and 14.975% in test [2] (time 2.250 h); 13.664% and 19.254% and 16.706% and 17.421% in test [2] (time 2.500 h); 17.610% and 18.428% and 15.401% and 17.419% in test [2] (time 2.750 h). Also, the “%FPE probe fluorescence” value in test [2] (time 3.000 h) is 19.032% and 18.994% and 17.022% and 19.151%; in test [2] (time 3.500 h), 21.344% and 21.727% and 19.004% and 22.809%; in test [2] (time 3.750 h), 22.381% and 21.465% and 19.735% and 21.684%; in test [2] (time 4.000 h), 24.245% and 24.044% and 22.333% and 25.118%; in test [2] (time 4.250 h) it was 24.067% and 25.243% and 24.565% and 26.782%; in test [2] (time 4.500 h) it was 26.784% and 27.018% and 26.091% and 25.883%. In addition, the “%FPE probe fluorescence” value in test [2] (time 4.750 h) is 28.232% and 25.575% and 25.168% and 25.868%; in test [2] (time 5.000 h) it was 29.310% and 28.226% and 25.991% and 29.486%; in test [2] (time 5.250 h), 29.376% and 30.191% and 26.180% and 29.320%; in test [2] (time 5.500 h), 30.897% and 29.807% and 29.795% and 31.357%; in test [2] (time 5.750 h) it was 32.177% and 31.200% and 28.228% and 32.379%; in test [2] (time 6.000 h) it was 33.601% and 32.676% and 30.907% and 33.191%. For the same compound, the “%holo RBP binding to TTR” value in test [3] was 8% and 6.2% and 5.8%.
For `CN(C)C(=O)C(CCN1CCC(O)(c2ccc(Cl)cc2)CC1)(c1ccccc1)c1ccccc1` [Loperamide], the GI transit in test [4] (30 mg/kg) is on record as 30%; in test [4] (subcutaneous 1 mg/kg), 50%. The “ED50 for inducing constipation” value in test [4] (subcutaneous) is given as 1 mg/kg.
For the compound `C[N+]1(CC2CC2)CC[C@]23c4c5ccc(O)c4O[C@H]2C(=O)CC[C@@]3(O)[C@H]1C5` (some centres unmarked) [MNTX], in test [5], the “affinity for the mu-opioid receptors as % of naltrexone” value is recorded as 1%. Besides, the Ki in test [5] (read-out: binding affinity to mu-opioid receptor (Ki)) is 0.0221 µM.

These data come from article PMC9226319, “Peripherally restricted transthyretin-based delivery system for probes and therapeutics avoiding opioid-related side effects” (Nature Communications, 2022).
